The record followed here is patent US11360104B2, “Microbial-based biosensors” (TRUSTEES OF BOSTON UNIVERSITY, priority 2017, dated 2022).

Where two headings read alike, the source gives them in different places.

For assay [1], the target named is Pimelobacter simplex PinR (AIY20223.2; SEQ ID NO: 1), his-tagged (AIY-his6). The assay is described as follows: QD-FRET steroid sensor (QD-PinR + DNA-Cy5), steroid-induced TF-DNA unbinding. Format: biochemical. On the procedure:
Fluorescent spectra were analyzed using MATLAB (Mathworks) and were fitted with a sum of 2 Gaussians (D=QD: FWHM=27 nm, λmax=607 nm; A=DNA-Cy5: FWHM=40 nm, λmax=669 nm). The area of each Gaussian was extracted and FD and FA are obtained respectively for the fluorescence of QD (donor) and Cy5 (acceptor).
Raw dose-response curves were obtained by plotting FA/FD as a function of the steroid concentration. Sensor output is the normalization of the fluorescent spectra of the donor and acceptor according to the following equation: […]
Non-normalized dose-response were fitted with Origin Pro 8 software with the non-linear equation: […]
The cross-reactivity of progesterone regarding the different steroids was calculated with the following equation: […]
CdSe/CdS/ZnS QDs were coated with a zwitterionic polymer bearing histamine anchoring functions (P1, SI). Once the hydrophobic QDs were transferred into H2O using a biphasic ligand exchange, his-tagged TFs were self-assembled on the QD surface to produce the QD-TF. Addition of the double stranded, Cy5-labeled TF-binding sequence completed probe assembly as the oligo binds to the TF in the absence of progesterone (PRG). The molar ratios of the QD, TF, and DNA in the sensor were controlled through the stoichiometric ratios of the mixed parts.
Two fluorescent spectra were recorded, one from the QDs and one from the Cy5 due to the FRET.
First, the DNA1 (most binding sequence) has been used to build the first biosensor, named sensor 1. For this sensor, a ratio of QD/TF/DNA of 1/4/18 was chosen. […] In order to homogenize the fluorescent signals in between batches and different sensor variations, FA/FD was normalized to give the signal output. Signal output is then plotted against PRG concentration to give a dose-response curve (FIG. 9C) This curve was fitted with the non-linear equation XX to obtain the half-maximal inhibitory concentration (IC50) (Table 13).
Description for a typical experiment, using a molar ratio of QD/TF/DNA=1/4/18. QDs in (275 uL, 0.15 uM in HEPES 1×, pH 7.6 with 1% BSA) were mixed with AIY-his6 (275 uL, 0.6 uM in HEPES 1× pH 7.6) at room temperature for 45 min. Then, the double-stranded DNA labelled with a Cy5 fluorescent probe at the 3′ and 5′ ends (275 uL, 2.7 uM in HEPES 1× pH 7.6) was added to the mixture. After 30 min, 220 uL of HEPES 1× pH 7.5 and 330 uL of 5× binding buffer (25 mM MgCl2, 25% glycerol, and 250 mg/L Invitrogen™ UltraPure™ Salmon Sperm DNA in Tris-HCl 0.1M) were added and the mixture is left 15 more min at RT.
50 uL of the sensor (QD/TF/DNA) was then splitted in 3×9 centrifuge tubes to which 10 uL of progesterone at the desired concentration is added. As such, the final concentration of QD/TF/DNA for the measurements is 25 nM/100 nM/450 nM. A 384 well plate was filled with 60 uL of each solution. The fluorescence intensity was monitored on a spectrofluorimeter from 535 nm to 800 nm exciting at 400 nm, equipped with a 450 nm long-pass filter in emission.

Assay [2] has as its system steroid responsive genome island (SRGI). In words: Whole transcriptome RNA-Seq of steroid treated P. simplex. Format: cell-based, Pimelobacter simplex. The settings on record: P. simplex exposed to steroid vs solvent control, Log2 fold change. The source says:
In order to identify steroid binding Transcription Factors, a whole transcriptome RNA sequencing (RNA-Seq) screen was developed (FIG. 7). The growth of Pimelobacter simplex bacteria was profiled with respect to the starting inoculation density, solvent toxicity, and the addition of steroids (FIG. 16). […] P. simplex bacteria were screened against the steroid solvents ethanol (EtOH) and dimethyl sulfoxide (DMSO). […] Steroid growth curves were similarly performed using a starting OD of 0.005 and constant solvent dosing with titrations of steroids. […] P. simplex bacteria were grown in the presence of 700 μM testosterone, 21.88 μM progesterone, 87.50 μM estrone, 21.88 μM 17β-estradiol, 21.88 μM hydrocortisone, or 175.00 μM aldosterone concentrations were selected for comparison.
Using accession gene tags, genes were annotated for steroid relevant enzymes or transcription factors. […] Allosteric TF binding sequences are often palindromes and typically located near the start of its gene location in an intergenic space. With such a design, the allosteric TF can regulate itself or the open reading frame (ORF) near it in response to its effector molecule. […] Once identified, the TFs were cloned and recombinantly expressed for thorough characterization.
Cells were grown in 6 mL volumes of media at the OD, solvent, and steroid concentrations found from the growth curves in 14 mL polypropylene round-bottom tubes (Corning #352059) in technical duplicate. The same controls as in the steroid exposure growth curve were used for setting up RNA extraction samples. The cells were incubated at their corresponding temperature with continuous orbital shaking at 150 rpm until the end of lag-phase, mid-log phase, or stationary phase from the start of inoculation. Afterward, samples were removed and a 1:1 ratio of RNAprotect Bacteria Reagent (Qiagen #76506) was added followed by spinning down at 4° C. for 10 minutes at 4000 g. Supernatant was removed and the pellet re-suspended in 300 μL of RNAprotect and transferred into 2.0 mL Safe-Lock Tubes (Eppendorf #3101). The samples were then spun down once again at 4° C. for 10 minutes at 10000 g. Once the supernatant has been removed the samples were placed on ice and ready for RNA extraction. RNA extraction was done by Qiacube (Qiagen #9001292) set to the RNeasy Protect Bacteria Mini Kit protocol of bacterial cell pellet with enzymatic lysis. Tube A was prepared as described except with the addition of 150 mg/mL lysozyme (Sigma-Aldrich #L6876) and 20 mg/mL proteinase K (Roche #03115879001) all diluted in 1xTE buffer. RNA samples were subsequently quantified using Qubit RNA HS Assay Kit (Thermo Fisher Scientific #Q32852) and analyzed using a RNA 6000 Pico Kit (Agilent 5067-1513) in a 2100 Bioanalyzer (Agilent G2939A). RNA samples were either immediately used for RNA-Seq library preparation or stored long-term at −80° C.
RNA-Seq libraries were then produced from these samples using a slightly modified ScriptSeq v2 RNA-Seq Library Preparation Kit (Illumina 455A/22124) ensuring use of unique index primers through ScriptSeq Index PCR Primers (Sets 1-4) 48 rxns/set (Illumina #SSIP1234).

Regarding `CC(=O)[C@H]1CC[C@H]2[C@@H]3CCC4=CC(=O)CC[C@]4(C)[C@H]3CC[C@]12C` [PRG, Progesterone], the IC50 came to 460 ± 20 nM in assay [1] (DNA1, QD/TF/DNA 1/4/18, read-out: X0); 370 ± 10 nM in assay [1] (DNA2, QD/TF/DNA 1/4/18, read-out: X0); 210 nM in assay [1] (DNA 3, QD/TF/DNA 1/1/2, read-out: X0); 350 nM in assay [1] (DNA 3, QD/TF/DNA 1/1/18, read-out: X0); 270 nM in assay [1] (DNA 3, QD/TF/DNA 1/2/2, read-out: X0); 410 nM in assay [1] (DNA 3, QD/TF/DNA 1/2/18, read-out: X0). In addition, the IC50 turned out to be 200 nM in assay [1] (DNA 3, QD/TF/DNA 1/4/2, read-out: X0); 290 nM in assay [1] (DNA 3, QD/TF/DNA 1/4/18 (Table 11), read-out: X0); 290 ± 20 nM in assay [1] (DNA3, QD/TF/DNA 1/4/18, read-out: X0); 390 nM in assay [1] (DNA 3, QD/TF/DNA 1/10/18, read-out: X0); 440 nM in assay [1] (DNA 3, QD/TF/DNA 1/16/18, read-out: X0); 49 ± 12 nM in assay [1] (DNA 4, QD/TF/DNA 1/1/4, read-out: X0). For the same compound, the IC50 in assay [1] (DNA 4, QD/TF/DNA 1/1/18, read-out: X0) was 74 ± 18 nM; in assay [1] (DNA 4, QD/TF/DNA 1/4/9, read-out: X0), 140 ± 14 nM; in assay [1] (DNA 4, QD/TF/DNA 1/4/18 (Table 12), read-out: X0), 150 ± 12 nM; in assay [1] (DNA4, QD/TF/DNA 1/4/18, read-out: X0) it was 150 ± 10 nM; in assay [1] (DNA 4, QD/TF/DNA 1/16/8, read-out: X0) it was 380 ± 16 nM; in assay [1] (sensor 2 (DNA 2, QD/TF/DNA=1/4/18), read-out: IC50), 133 ± 9 nM. For the same compound, the IC50 in assay [1] (sensor 3 (DNA 2, QD/TF/DNA=1/1/18), read-out: IC50) was 57 ± 3 nM. Moreover, in assay [2], the “upregulation of genes inside the SRGI” value is reported as “observed”.
